What is called melting point is the temperature of the solid-liquid transition.

Melting point data for 87 compounds are collected here from a melting point compilation (Tetko et al.; mined from patent text by program, amines drawn as free bases though some values may be those of a salt).

Turning to `COC(=O)C1=C(C)NC(C)=C(C(=O)OCC(C)C)C1c1cccc2nonc12` (configuration not stated), the melting point was 148 to 158 °C.

Regarding `CCS(=O)(=O)CCc1ccc(C(=O)c2ccc(Cl)cc2)cc1`, the melting point was in the range of 117 to 118 °C.

Compound `O=C(O)COc1ccc2c(c1)Cc1sc(SCCC(c3ccccc3)c3ccccc3)nc1-2` returned a melting point of 135 to 137 °C. The result for `Cc1ccc(-c2ccccc2C(=O)NN)cc1` reads 98 to 99 °C. With `CCCCCCCCCCOCC(COCCCCCCCCCC)(CC(=O)O)CC(=O)O` the figure was 68 to 71 °C; with `CN(Cc1cccc2c1CN(C1CCC(=O)NC1=O)C2=O)C(=O)Nc1cccc(Cl)c1` (configuration not stated), 193 to 195 °C.

`O=C(CCCCC1CCN(Cc2ccccc2)CC1)c1ccc(N2CCCC2)cc1` yielded a melting point of 129 to 131 °C. The compound `COc1ccc(CN2CCN(C(=S)C3(C)CCc4c(C)c(O)c(C)c(C)c4O3)CC2)c(OC)c1OC` (configuration not stated) registered a melting point of 124 to 125 °C. The result for `COc1cc(C(=O)NS(=O)(=O)c2ccccc2C)ccc1Cc1cn(C)c2ccc(CC(C)C(=O)NCC3CCCC3)cc12` (configuration not stated) reads 119 to 126 °C; that for `CC(=O)c1cccc(Oc2ncccc2C(=O)NCc2ccc(S(N)(=O)=O)cc2)c1`, 162 to 164 °C. With `CCOC(=O)C1=Cc2cc(C(O)C(F)(F)F)ccc2OC1C(F)(F)F` (configuration not stated) the figure was 114 to 120 °C. With `CC(CCCCC(=O)O)C1CCC2C3CCC4CC(O)CCC4(C)C3CC(O)C12C` (configuration not stated) the figure was 191 to 193 °C; with `O=C(Nc1ccc(Cl)cc1)NC(c1ccccc1)C(O)c1ccccc1` (configuration not stated), 198 °C. In turn, `CCCc1cc(C(=O)NCCC(N)=O)ccc1OC(C(=O)NS(=O)(=O)c1ccc(C(C)C)cc1)c1ccc2c(c1)OCO2` (configuration not stated) yielded a melting point of 110 to 112 °C. The result for `COC(=O)c1ccc(C(=O)c2ccccc2)o1` reads 70 to 73 °C; that for `CCCCOc1cc(C(=O)O)cc(N)c1C(=O)c1ccccc1`, 202 to 204 °C; that for `COC(=O)c1ccc(OCCNC(=O)C2Cc3ccccc3N2S(=O)(=O)c2ccc(-c3ccc(F)cc3)cc2)c(Cl)c1` (configuration not stated), 84 to 90 °C. As for `COc1cc(CC(=O)O)n(C)c1C(=O)c1ccc(Cl)cc1`, the melting point amounted to 142 °C. With `CCOC(=O)CCCN1CCN(C2=Nc3ccccc3Oc3ccc(Cl)cc32)CC1` the figure was 86 to 87 °C. The result for `Cc1ccc(Cl)c(-c2cc(=O)c3c(O)cc(O)c([C@@H]4CCN(C)[C@H]4CO)c3o2)c1` reads 206 to 208 °C; that for `COC(=O)C(Cc1cc([N+](=O)[O-])ccc1Cl)C(=O)OC`, 72 to 74 °C. The result for `O=C(O)CC1(CS)CC1` reads 42 to 45 °C. Compound `O=C1OC(COc2ccccc2)CN1CCCOc1ccc(CC2SC(=O)N(C(c3ccccc3)(c3ccccc3)c3ccccc3)C2=O)cc1` (configuration not stated) yielded a melting point of 70 to 73 °C. The result for `Nc1nc(O)c2cc(C=Cc3ccc(C(=O)O)cc3)cnc2n1` reads over 250 °C; that for `CCN(CC)C(=O)C=C1C=C(C(C)(C)C)C(=O)C(C(C)(C)C)=C1`, 109 to 110 °C.

Regarding `CCOc1ccc2c(c1)n(C1CCCCC1)c(=O)n2S(=O)(=O)c1ccc(C(=O)NC(C)(C)CN(C)C)cc1OC`, the melting point was found to be 161 °C. `COC=C(C(=O)OC)c1scnc1COc1ccccc1` gave a melting point of 133 °C. `CC(C)n1nccc1-c1nn(-c2cccc(C(F)(F)F)c2)ccc1=O` had a melting point of 183 to 184 °C.

On to `O=[N+]([O-])c1c(NCCO)cccc1NCCO`, for which the melting point lay within 103 to 104 °C. `CC(C)(C)NCC(O)COc1ccc2nc(S(N)(=O)=O)sc2c1` (configuration not stated) had a melting point of 195 to 196 °C.

Compound `COC(=O)c1ccc(C#N)c(OC)n1` registered a melting point of 125 °C. `COc1ccc2ccnc(N)c2c1` gave a melting point of 128 to 130 °C.

Regarding `CC(C)(C)OC(=O)c1ncn2c1cc(C(=O)N1CCNCC1)c1cc(Cl)ccc12`, the melting point lay within 239 to 240 °C.

Take `CCCCCOC(=O)C1=C(C)NC(C)=C(C(=O)NC(C)C)C1c1ccccc1[N+](=O)[O-]` (configuration not stated): the melting point is 186 to 189 °C. The result for `COC(=O)c1cc(OC)c(-n2cccc2)c(OC)c1` reads 145 to 146 °C. The result for `O=C1CCN2C(=O)c3cccc(NC(=O)Nc4cc(O)c5ccccc5n4)c3C2C1` (configuration not stated) reads over 260 °C. The compound `COc1cc(C2=C(c3c(-c4ccccc4)[nH]c4ccccc34)C(=O)NC2=O)cc(OC)c1OC` displayed a melting point of 304 °C. The result for `Cc1cc2c(cc1OCC(=O)O)C(C)(C)CC1(CC(C)(C)c3cc(OCC(=O)O)c(C)cc3O1)O2` reads over 260 °C; that for `CCCCN1CCC(CNC(=O)c2ccc(N)n3cc(Cl)nc23)CC1`, 113 °C; that for `CCOC(=O)c1c(N)sc(N)c1C(=O)OCC`, 155 to 158 °C. The result for `Cc1ncc([N+](=O)[O-])n1CCN(CCCCCCCCN(CCn1c([N+](=O)[O-])cnc1C)CCn1c([N+](=O)[O-])cnc1C)CCn1c([N+](=O)[O-])cnc1C` reads 157 to 158 °C. With `CCC1(Cl)C(=O)c2c(cc(OCC(=O)O)c(Cl)c2Cl)C1C` (configuration not stated) the figure was 208 to 210 °C; with `CCN1C(=O)CN=C(c2ccccc2F)c2cc(C(C)N)ccc21` (configuration not stated), 53 to 55 °C.

With `CCc1cccc(C)c1N1C(=O)CCN(CC)C1=S`, the melting point lay within 74 to 77 °C. Turning to `CCOC(=O)c1cnc2c(OCc3ccccc3)c(F)c(F)cc2c1O`, the melting point lay in the range of 200 to 201 °C.

`CCOC(=O)c1cccc(-c2ccc(C#N)cc2)c1`: the melting point lay within 91.5 to 92 °C. With `CC(C)(C)OC(=O)NCCNC(=O)c1ncsc1-c1cccc(OCc2cccc(C#N)c2)c1` the figure was 115 °C; with `COc1nc(N)nc2c1ncn2C1O[C@H](CO)C[C@@]1(C)O` (some centres not stated), 140 to 142 °C; with `COc1ccnc(CCc2nc3cc(-c4ccc(NS(=O)(=O)c5ccccc5)cc4)cnc3[nH]2)c1`, 251 to 253 °C.

In turn, `Nc1nc(C(F)(F)F)nc2c1ncn2C1OC(CO)C(O)C1O` (configuration not stated) registered a melting point of 173 to 175 °C. In turn, `CCOC(=O)c1nc(-c2ccc(=O)n(CC)c2)c(-c2ccccc2)nc1N` displayed a melting point of 175 to 179 °C. With `CCOC(=O)c1ncn2c1CN=C(c1ccccc1)c1cc(C#CC(C)(C)C)ccc1-2` the figure was 155 to 156 °C; with `Cc1ncc(CO)cc1OC(=O)c1cccs1`, 59 to 61 °C. In turn, `CCCc1ccc(-c2nc(C)c(C(C)=NNC(=N)N)s2)cc1` came in with a melting point of 256 to 257 °C.

As for `CC(C)C(Oc1ccccc1)C(=O)NCCO[N+](=O)[O-]` (configuration not stated), the melting point was 76 to 77 °C. Compound `COC(=O)C=Cc1ccc(O)cc1` had a melting point of 139 to 140 °C. With `CCN(C(=O)N1CCN(c2cc(C)cc(C)c2)CC1)c1nc(C)c(C)nc1OC` the figure was 68 to 70 °C; with `COc1ccc(C[C@@H]2COc3ccc(OCc4nc5cc(F)ccc5s4)cc3[C@@H]2O)cc1C(=O)O` (relative stereo), 149 to 151 °C. With `COC[C@H](Cc1ccccc1)NC(=O)[C@@H](CC(=O)O)n1ccc(-c2ccc(-c3ccccc3)cc2)c1` the figure was 247 °C. The result for `O=C(O)CCCC=C1SC[C@H]2[C@@H]1N(Cc1ccccc1)C(=O)N2Cc1ccccc1` reads 79 to 82 °C.

In turn, `Cc1nc2c(N)nc3ccccc3c2n1CCOCCN1CCCS1(=O)=O` yielded a melting point of 186 to 187 °C. Compound `Cc1ccccc1CO[C@H]1COCO[C@H]1C` (relative stereo) registered a melting point of 54 °C. The result for `COC1(OC)C(=O)Nc2ccc(C(=O)c3ccc(Cl)cc3)cc21` reads 170 °C; that for `Cc1oc2c(Br)cccc2c1C`, 33 °C.

`Cc1nn(C)c2c1N(C(=O)CN1CCCC1)c1ccccc1NC2=O`: the melting point was in the range of 114 to 116 °C.

For the compound `CC(NC(=O)C(N)Cc1ccccc1)C(N)=O` (configuration not stated), the melting point lay in the range of 95 to 97 °C. `COc1cc(N)c(Cl)cc1C(=O)N(C)OC` displayed a melting point of 134 to 135 °C. `COC(=O)c1ccc(Cl)cc1NC(=O)CSc1ccccc1C(=O)O` showed a melting point of 207 to 209 °C. In turn, `CN(C)c1cccc2c(S(=O)(=O)N3CCC(NC(=O)Nc4ccc(OC(F)(F)F)cc4)CC3)cccc12` displayed a melting point of 102 to 107 °C. `Cc1cn(-c2ccc(Br)cc2C#N)cn1` showed a melting point of 166 °C. The result for `CCn1cc(C(=O)O)c(=O)c2ccc(C=NNc3ccc(O)cc3)nc21` reads 300 °C; that for `CCc1nc2c(C)cc(C)nc2n1Cc1ccc(C(Cc2ccccc2)C(C(=O)O)C(=O)O)cc1` (configuration not stated), 127 to 128 °C.

`C#Cc1cnc2ccc(OC(SC)C(=O)NC(C)(C#C)CO)cc2c1` (configuration not stated) yielded a melting point of 149 to 150 °C. The result for `CC(C)C[C@H](NC1CCOCC1)C(=O)O` reads over 300 °C. For the compound `COC(=O)CN(C)CC(=O)Nc1cccc2c1C(=O)c1c(NC(=O)CN(C)CC(=O)OC)cccc1C2=O`, the melting point is 129 to 130 °C. With `O=C(O)COc1ccc(OCC(=O)O)c(NC(=O)c2ccc(OCCCCc3ccccc3)cc2)c1` the figure was 211 to 214 °C; with `Cc1nnc2nc(-c3ccccc3)c3cc(Cl)ccc3n12`, 335 to 337 °C; with `Cc1ccc(S(=O)(=O)N(C)c2ccccc(N)c2=O)cc1`, 221 to 222 °C. With `NC(=O)c1ncn2c(-c3ccc(Cl)c(Cl)c3)ccnc12`, the melting point lay within 302 to 304 °C. As to `CCc1c(O)c(=O)ccn1CCOC(=O)C(C)(C)C`, the melting point was 113 to 115 °C. The result for `CCOC(OCC)c1nc(C2CC2)nc(N)c1Cl` reads 104 to 110 °C; that for `CC(=O)c1c(-c2ccc(F)cc2)nn(CC2CC2)c(=O)c1Nc1cccc2ncccc12`, 169 to 170 °C. In the case of `CC(C)Cc1cncc(O)n1`, the melting point was in the range of 130 to 131 °C. `Cc1cn(C2CC(O)C(C#N)(CO)O2)c(=O)[nH]c1=O` (configuration not stated) came in with a melting point of 238 to 242 °C. On to `Fc1ccc(-n2ccc3cc(-c4nnn[nH]4)ccc32)cc1`, for which the melting point lay in the range of 224 to 225 °C.

As to `Clc1cc(Nc2nccc(-c3ccc(N4CCNCC4)nc3)n2)cc(Cl)c1Cl`, the melting point is 208 to 211 °C. The result for `c1ccc(C2COc3ccccc3C2)cc1` (configuration not stated) reads 54 to 56 °C.
